According to paper PMC12621175, “Scaffold Fusion and SAR Transfer with a Chemical Language Model Generates Novel Liver X Receptor Modulators” (Journal of Medicinal Chemistry, 2025):
“Also recorded” adds a separate entry of the source.

Experiments:
[1] = system: HEK293T cells; experiment: resazurin-based proliferation assay, HEK293T; assay type: cell-based; settings: 10 μM
Protocol: (§1) HepG2 or HEK293T cells were seeded in 96-well plates (4 × 10^4 cells per well). […] After 4, 14, and 24 h, the medium was aspirated, and the cells were incubated with 100 μM resazurin solution in Opti-MEM (prepared from a 0.15 mg/mL resazurin stock in DPBS) for 60 min. The metabolic activity was assessed by conversion of resazurin to resorufin, which was quantified by measuring absorbance at 570 nm and a reference wavelength of 600 nm. The cell count was calculated from a calibration curve with 0–10^5 cells per well in steps of 2 × 10^4.

[2] = system: HepG2 cells; experiment: resazurin-based proliferation assay, HepG2; assay type: cell-based; settings: 10 μM
Protocol: as §1

[3] = system: LXR/retinoid X receptor (RXR) heterodimer; experiment: full-length LXR assay (LXR-responsive ABCA1 reporter, endogenous LXR) in HEK293T and HepG2 cells; assay type: cell-based; settings: 3 μM, vs 0.1% DMSO
Text: Intrigued by the initial data on LXR modulation, we further investigated the mode-of-action of designs 1-3. As the Gal4 hybrid reporter gene assay is artificial and overexpresses LXR, we next examined LXR modulation by 1-3 in a full-length LXR assay (Figure a) based on the endogenous expression of the LXR/retinoid X receptor (RXR) heterodimer (Figure S2). Upon activation, LXR binds to response elements within the ATP-binding cassette transporter A1 (ABCA1, an LXR target gene) promoter of the reporter. […] The designs were next checked for antiproliferative effects that may compromise further in vitro characterization. […] Therefore, and due to the weak efficacy of 2, we focused further biological characterization on 1 and 3.
For the hybrid reporter gene assays, the previously reported Gal4-fusion receptor plasmids pFA-CMV-hRORα-LBD, pFA-CMV-hRORβ-LBD, pFA-CMV-hRORγ-LBD, pFA-CMV-hLXRα-LBD, pFA-CMV-hLXRβ-LBD, pFA-CMV-hFXR-LBD, pFA-CMV-hPXR-LBD, and pFA-CMV-hRXRα-LBD, coding for the hinge region, and LBD of the canonical isoform of the respective nuclear receptor were used. pFR-Luc (Stratagene) was used as the reporter plasmid, and pRL-SV40 (Promega) was used in all assays for the normalization of transfection efficiency and cell growth. pECE-SV40-Gal4-VP16 was a gift from Lea Sistonen (Addgene plasmid #71728). The LXR-responsive reporter ABCA1-pGL3 was used for the full-length reporter gene assay.
The day before transfection, HEK293T cells were seeded in 96-well plates (4 × 10^4 cells/well). Before transfection, the medium was changed to Opti-MEM without any supplements. […] Luminescence was measured with a Spark 10 M luminometer (Tecan Deutschland GmbH). […] EC50/IC50 values and the standard errors thereof were calculated with the mean fold activation values by OriginPro, Version 2025 (OriginLab Corporation, Northampton, MA, USA), fitting a dose–response curve with a variable Hill slope (Levenberg–Marquardt algorithm). […]

[4] = target: T1, LXRα (Homo sapiens, UniProt Q13133); experiment: Gal4-LXRα hybrid reporter gene assay; assay type: cell-based
T1 construct: coding for the hinge region, and LBD of the canonical isoform of the respective nuclear receptor; expressed in transfected cells; host or cells: HEK293T
T1 sequence (Q13133 209-447 limits assumed): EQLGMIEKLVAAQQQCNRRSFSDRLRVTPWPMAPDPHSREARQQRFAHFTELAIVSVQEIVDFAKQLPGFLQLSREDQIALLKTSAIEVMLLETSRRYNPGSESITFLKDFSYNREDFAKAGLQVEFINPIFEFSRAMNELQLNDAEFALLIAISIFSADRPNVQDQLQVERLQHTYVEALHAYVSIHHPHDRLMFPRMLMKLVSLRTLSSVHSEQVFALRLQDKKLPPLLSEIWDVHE
Protocol: (§2) The LXR-responsive reporter ABCA1-pGL3 was used for the full-length reporter gene assay.
(§3) The day before transfection, HEK293T cells were seeded in 96-well plates (4 × 10^4 cells/well). Before transfection, the medium was changed to Opti-MEM without any supplements. Transient transfection was carried out using Lipofectamine LTX reagent (Invitrogen) according to the manufacturer’s protocol with (a) pFR-Luc (Stratagene), pRL-SV40 (Promega), and the corresponding Gal4-fusion nuclear receptor plasmid or (b) the LXR-responsive reporter ABCA1-pGL3 and pRL-SV40 (Promega). […] Each concentration was tested in duplicate, and each experiment was repeated in at least three biologically independent repeats. […] Luminescence was measured with a Spark 10 M luminometer (Tecan Deutschland GmbH). Normalization of transfection efficiency and cell growth was done by division of firefly luciferase data by renilla luciferase data multiplied by 1000, resulting in relative light units (RLU). Fold activation was obtained by dividing the mean RLU of the tested compound at a respective concentration by the mean RLU of the untreated 0.1% DMSO control. […] Separate control experiments to exclude nonspecific reporter gene activation or VP16-mediated effects were performed following the same procedure in the absence of a nuclear receptor expression plasmid (pFR-Luc, pRL-SV40, and pECE-SV40-Gal4-VP16 only).

[5] = target: T2, LXRβ (Homo sapiens, UniProt P55055); experiment: Gal4-LXRβ hybrid reporter gene assay; assay type: cell-based; settings: classification agonist; read-out: LXRb pEC50/pIC50 (converted)
T2 construct: coding for the hinge region, and LBD of the canonical isoform of the respective nuclear receptor; expressed in transfected cells; host or cells: HEK293T
T2 sequence (P55055 222-460 limits assumed): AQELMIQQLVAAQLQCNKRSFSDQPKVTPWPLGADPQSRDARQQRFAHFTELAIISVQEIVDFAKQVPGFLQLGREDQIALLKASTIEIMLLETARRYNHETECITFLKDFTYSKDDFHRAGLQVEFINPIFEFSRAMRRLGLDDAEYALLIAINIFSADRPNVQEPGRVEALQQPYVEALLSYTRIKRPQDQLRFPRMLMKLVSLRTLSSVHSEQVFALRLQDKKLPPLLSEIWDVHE
Protocol: as §2, §3

[6] = system: SREBP1c; experiment: qPCR of LXR-regulated mRNA expression in HepG2: SREBP1c; assay type: cell-based, human; settings: 1 μM, HepG2, 24 h
[7] = system: ABCA1; experiment: qPCR of LXR-regulated mRNA expression in HepG2: ABCA1; assay type: cell-based, human; settings: 1 μM, HepG2, 24 h
[8] = system: APOE; experiment: qPCR of LXR-regulated mRNA expression in HepG2: APOE; assay type: cell-based, human; settings: 1 μM, HepG2, 24 h

Row | SMILES | antiproliferative effect [1] | antiproliferative effect [2] | LXR modulation in LXR-responsive ABCA1 reporter gene assay [3] | classification ([4]; applies to LXRa and LXRb) | LXR modulation in Gal4 hybrid reporter gene assays (mode of action) ([4]; both LXR subtypes (LXRα and LXRβ)) | EC50 ([4]; classification agonist, read-out: LXRa pEC50/pIC50 (converted)) | EC50 [5] | SREBP1c mRNA expression [6] | SREBP1c mRNA expression ([6]; listed as T090) | ABCA1 mRNA expression [7] | ABCA1 mRNA expression ([7]; listed as T090) | APOE mRNA expression [8] | APOE mRNA expression ([8]; listed as T090)
1 | CS(=O)(=O)c1cccc(N2CCN(c3ccc(Cl)c(C(F)(F)F)c3)CC2)c1 [Compound 2, 1-(4-Chloro-3-[trifluoromethyl]phenyl)-4-(3-[methylsulfonyl]phenyl)piperazine] | did not inhibit the proliferation; also recorded: slightly reduced growth rate | did not inhibit the proliferation | partial LXR agonists; also recorded: partial LXR agonism | agonist | partial agonists | > 3.16 µM | > 3.16 µM |  |  |  |  |  | 
2 | O=S(=O)(c1ccccc1)N(CC(F)(F)F)c1ccc(C(O)(C(F)(F)F)C(F)(F)F)cc1 [Compound T0901317, reference compound] |  |  |  |  |  |  |  | induced mRNA expression | induced | induced mRNA expression | induced | induced mRNA expression | induced
